Experimental data reported in US7838535B2, “Compounds having β2 adrenergic receptor agonist and muscarinic receptor antagonist activity” (Theravance, Inc., priority 2003, dated 2010).
pKi: −log10 of the molar value. Counter-ions that a name gives are not always drawn.

Key:
hM2 receptor = target: T1, hM2 receptor (Homo sapiens, UniProt P08172); test: Blockade of agonist-mediated [35S]GTPγS binding, CHO-K1 membranes expressing hM2; assay type: biochemical; details: CHO-K1 cells expressing the hM2 receptor; read-out: Ki value for blockade of oxotremorine-stimulated [35S]GTPγS-binding
T1 construct: expressed in transfected cells
T1 sequence (P08172 1-466): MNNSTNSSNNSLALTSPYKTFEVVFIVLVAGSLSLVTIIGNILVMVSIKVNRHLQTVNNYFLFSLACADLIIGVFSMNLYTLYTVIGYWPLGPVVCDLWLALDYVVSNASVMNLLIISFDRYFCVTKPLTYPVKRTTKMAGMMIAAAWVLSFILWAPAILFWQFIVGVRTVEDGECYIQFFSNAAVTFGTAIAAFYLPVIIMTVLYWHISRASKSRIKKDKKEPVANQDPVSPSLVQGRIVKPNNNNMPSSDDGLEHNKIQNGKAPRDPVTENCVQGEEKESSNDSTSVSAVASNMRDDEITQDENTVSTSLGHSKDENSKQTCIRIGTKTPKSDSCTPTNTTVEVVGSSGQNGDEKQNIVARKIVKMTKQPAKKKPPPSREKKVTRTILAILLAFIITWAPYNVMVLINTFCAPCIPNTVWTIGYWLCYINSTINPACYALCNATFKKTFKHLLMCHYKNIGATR
Protocol: In a second functional assay, the functional potency of test compounds is determined by measuring the ability of the compounds to block oxotremorine-stimulated [^35S]GTPγS binding in CHO-K1 cells expressing the hM2 receptor.
At the time of use, frozen membranes were thawed and then diluted in assay buffer with a final target tissue concentration of 5-10 μg protein per well. The membranes were briefly homogenized using a Polytron PT-2100 tissue disrupter and then added to the assay plates.
The EC90 value (effective concentration for 90% maximal response) for stimulation of [^35S]GTPγS binding by the agonist oxotremorine was determined in each experiment.
To determine the ability of a test compound to inhibit oxotremorine-stimulated [^35S]GTPγS binding, the following was added to each well of 96 well plates: 25 μL of assay buffer with [^35S]GTPγS (0.4 nM), 25 μL of oxotremorine (EC90) and GDP (3 uM), 25 μL of diluted test compound and 25 μL CHO cell membranes expressing the hM2 receptor. […] Microscint-20 scintillation liquid (50 μL) was added to each well, and each plate was sealed and radioactivity counted on a Topcounter (PerkinElmer). Data were analyzed by nonlinear regression analysis with the GraphPad Prism Software package (GraphPad Software, Inc., San Diego, Calif.) using the non-linear regression, one-site competition equation. […]

[1] = target: T2, human dopamine D2S receptor (Homo sapiens, UniProt P14416); test: Radioligand competition binding assay in cloned human dopamine D2S receptor; details: test concentration 100 nM, 0.3 nM [3H]spiperone, transfected CHO cell membranes; read-out: percent inhibition of the control radioligand specific binding
T2 construct: expressed in transfected cells; host or cells: CHO cells, transfected, cell membrane homogenates
T2 sequence (P14416 1-414 isoform P14416-2): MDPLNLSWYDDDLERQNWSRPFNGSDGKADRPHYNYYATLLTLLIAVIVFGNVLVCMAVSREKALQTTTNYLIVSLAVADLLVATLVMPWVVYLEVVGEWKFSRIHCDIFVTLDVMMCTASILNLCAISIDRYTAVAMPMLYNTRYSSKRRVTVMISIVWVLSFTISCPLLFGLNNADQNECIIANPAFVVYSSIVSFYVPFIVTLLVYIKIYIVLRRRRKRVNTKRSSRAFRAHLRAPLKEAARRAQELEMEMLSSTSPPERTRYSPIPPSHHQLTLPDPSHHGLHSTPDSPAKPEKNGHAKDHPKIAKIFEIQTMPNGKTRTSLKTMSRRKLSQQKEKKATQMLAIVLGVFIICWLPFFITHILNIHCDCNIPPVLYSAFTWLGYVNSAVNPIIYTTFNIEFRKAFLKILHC
Protocol: In this assay, the binding affinity of test compounds for the human dopamine D2S receptor in transfected CHO cells is determined using a radioligand binding assay (Grady et al., Proc. Natl. Acad. Sci. USA 86:9762 (1989). Cell membrane homogenates (5-10 μg protein) were incubated for 60 minutes at 22° C. with 0.3 nM [^3H]spiperone in the absence or presence of a test compound in a buffer containing 50 mM Tris-HCl (pH 7.4), 120 mM NaCl, 5 mM KCl, 5 mM MgCl2 and 1 mM EDTA. The test compound was used at a test concentration of 100 nM. Nonspecific binding was determined in the presence of 10 μM (+)-butaclamol. Following incubation, the samples were filtered rapidly under vacuum through glass fiber filters (GF/B, Packard) presoaked with 0.3% polyethyleneimine and rinsed several times with ice-cold 50 mM Tris-HCl using a 96-sample cell harvester (Unifilter, Packard). The filters were dried, and then counted for radioactivity in a scintillation counter (Topcount, Packard) using a scintillation cocktail (Microscint 0, Packard). The results were expressed as a percent inhibition of the control radioligand specific binding.

Compound | pKi (hM2 receptor) | inhibition at 0.1 µM [1] [%]
O=C(Nc1ccccc1-c1ccccc1)OC1CCN(CCCCCCCCCNCCc2ccc(O)c3[nH]c(=O)sc23)CC1 [Example 1, Biphenyl-2-ylcarbamic Acid 1-{9-[2-(4-Hydroxy-2-oxo-2,3-dihydrobenzothiazol-7-yl)-ethylamino]nonyl}piperidin-4-yl Ester Bis(trifluoroacetate) Salt] | > 8.00 | > 75
O=C(CCN1CCC(OC(=O)Nc2ccccc2-c2ccccc2)CC1)Nc1ccc(CNCCc2ccc(O)c3[nH]c(=O)sc23)cc1 [Example 2, Biphenyl-2-ylcarbamic Acid 1-[2-(4-{[2-(4-Hydroxy-2-oxo-2,3-dihydrobenzothiazol-7-yl)ethylamino]methyl}phenylcarbamoyl)ethyl]-piperidin-4-yl Ester Bis(trifluoroacetate) Salt] | – | > 30
